According to patent US20090202499A1, “Human Telomerase Reverse Transcriptase Peptides” (priority 2006, published 2009):
“Also recorded” adds a separate entry of the source.

Experiments:
[1] = biological target: HLA-B7 (HLA-B*0702) (Homo sapiens, UniProt P01889); assay: MHC stabilization assay on T2-B7 cells (relative avidity); format: cell-based; settings: summary of both binding assays of Table II
Description: MHC binding assays. Relative avidity measurements. The relative avidity of hTRT peptides for HLA B7 was measured using a MHC stabilization assay on T2-B7 cells in comparison with a reference peptide as described previously (14).
Next, we assessed the actual binding avidity for HLA-B7 (HLA-B*0702). Two independent assays were used: binding stabilization assay on T2-B7 cells by flow cytometry (12) and a competitive solid-phase radioimmunoassay on immobilized purified HLA-B7 molecule (35).

[2] = biological target: B*0801 (Homo sapiens, UniProt P01889, A93T/A95T/D138N/E176V/E187T/K202T/Q94N/R180D/S35A/V36M/Y33D/Y91F); assay: biochemical
Description: Supertype analysis. Quantitative assays to measure the binding affinity of peptides to purified HLA B7-supertype molecules (B*0702, B*3501, B*5101, B*5301, B*5401) and B*0801 were based on the inhibition of binding of a radiolabeled standard peptide, and were performed as previously described (22, 35). Briefly, 1-10 nM of radiolabeled peptide was co-incubated at room temperature with 1 microM to 1 nM of purified MHC in the presence of 1-3 μM human beta2-microglobulin (Scripps Laboratories, San Diego, Calif.) and a cocktail of protease inhibitors. After a two-day incubation, binding of the radiolabeled peptide to the corresponding MHC class I molecule was determined by capturing MHC/peptide complexes on Greiner Lumitrac 600 microplates (Greiner Bio-one, Longwood, Fla.) coated with the W6/32 antibody, and measuring bound counts per minute (cpm) using the TopCount microscintillation counter (Packard Instrument Co.). […] Under the conditions utilized, where [label]<[MHC] and IC50≧[MHC], the measured IC50 values are reasonable approximations of the true Kd values.
Here, we decided to test the selected hTRT peptides for their ability to bind five out of ten members of the HLA-B7 supertype (B*3501, B*5101, B*5301, B*5401) and B*0801.

[3] = tested on: human T2-B7 pulsed with p1123; assay: murine CTL line specific for p1123, 51Cr-release assay; format: cell-based; settings: mCTL from p1123-immunized HLA-B7 Tg mice
[4] = tested on: T2-B7 target cells pulsed with p1123; assay: conventional in vitro immunization of human PBMC with p1123, 51Cr-release assay; format: cell-based
Description: FIG. 4. Characterization of human CTL generated by in vitro immunization. An example of one of two HLA-B7^+ normal donor PBMC from and a prostate cancer patient. Immunization in vitro was performed using a conventional method (12). […] CTL were tested after 5 cycles of in vitro restimulation with homologous peptide. (B) Surface phenotype analysis using anti-CD3 and anti-CD8 monoclonal antibodies of the CTL shown in panel A. The percentage of double positive cells is indicated. […] CTL were tested after 7 cycles of in vitro restimulation with homologous peptide. (D) Surface phenotype analysis using anti-CD3 and anti-CD8 monoclonal antibodies of the CTL from the same patient shown on panel C after 5 cycles of in vitro restimulation with homologous peptide. Experiments shown in A and B are representative of set of similar data from two normal donors examined at different times.
In vitro immunization procedures. In experiments shown in Table III and FIG. 3, immunizations were performed in 96 well plates. […]
(§1) CTL assays. Both murine and human CTL were detected by the ^51Cr release assay performed as previously described (14). […] The supernatants were harvested and counted on a Wallac 1470 Wizard Gamma counter. The percent lysis was calculated as 100 (cpmexp−cpmspont)/(cpmmax−cpmspont). […]

[5] = tested on: JY cells; assay: lysis of hTRT positive JY cells by human CTL against p1123; format: cell-based; settings: CTL from normal donors; no peptide pulsing
Description: Tests were run in duplicates at the indicated E:T ratios. CTL were used after 4 cycles of in vitro restimulation with homologous peptide. […].
In vitro immunization procedures. In experiments shown in Table III and FIG. 3, immunizations were performed in 96 well plates. Briefly, 2×10^5 irradiated (6000 rads) human PBMC were plated in 96 (flat) well-plate in 100 micro-liters of complete human medium (RPMI 1640 medium containing 10% heat inactivated human AB serum, 2 mM glutamine, 50 micro-grams/ml streptomycin and 50 micro-grams/ml penicillin) with 100 micro-grams/ml of peptide. 12 wells per peptide were plated per patient. Then 2×10^5 PBMC in 100 micro-liters of complete human medium were added into each well. Four days later 100 micro-liters of medium were replaced with 100 micro-liters of fresh complete human medium containing 80 IU/ml of IL-2. At day 6-7, 100 IU/ml of IL-2 were added and wells were split into two. On day 10-11 micro-cytotoxicity assay was performed. […]
as §1

Structure (SMILES)	binding avidity for HLA-B7 (in words) [1]	IC50 [2] [nM]	further results
CC(C)C[C@H](NC(=O)[C@H](CO)NC(=O)[C@@H](NC(=O)[C@H](C)NC(=O)[C@H](CCC(=O)O)NC(=O)[C@H](CCC(=O)O)NC(=O)[C@H](C)NC(=O)[C@@H]1CCCN1C(=O)[C@@H](N)CCCNC(=N)N)[C@@H](C)O)C(=O)O [p277]	high avidity binding; also recorded: high binding in vitro		
CC(C)C[C@H](NC(=O)[C@H](CO)NC(=O)[C@H](CO)NC(=O)[C@H](CC(C)C)NC(=O)[C@H](CC(C)C)NC(=O)[C@H](Cc1ccccc1)NC(=O)[C@H](CO)NC(=O)[C@@H]1CCCN1C(=O)[C@@H](N)CCCNC(=N)N)C(=O)O [p342]		37	
CC(C)C[C@H](NC(=O)[C@H](CC(C)C)NC(=O)[C@H](CCC(N)=O)NC(=O)[C@@H](NC(=O)[C@H](CC(C)C)NC(=O)[C@H](CCCNC(=N)N)NC(=O)[C@H](CCCNC(=N)N)NC(=O)[C@@H]1CCCN1C(=O)[C@@H](N)CC(=O)O)C(C)C)C(=O)O [p444]	poor and weak binding and poor binding	217	
CC(C)C[C@H](NC(=O)[C@H](CCCNC(=N)N)NC(=O)[C@H](CCCNC(=N)N)NC(=O)[C@H](CC(C)C)NC(=O)[C@H](CS)NC(=O)[C@H](C)NC(=O)[C@H](CCCNC(=N)N)NC(=O)[C@@H](NC(=O)[C@@H](N)Cc1ccccc1)C(C)C)C(=O)O [p464]		123	
CC(C)C[C@H](NC(=O)[C@H](C)NC(=O)[C@@H](NC(=O)[C@H](CC(C)C)NC(=O)[C@@H](NC(=O)[C@@H](NC(=O)CNC(=O)[C@@H]1CCCN1C(=O)[C@@H](N)CC(C)C)[C@@H](C)O)[C@@H](C)O)[C@@H](C)O)C(=O)O [p1107, LPGTTLTAL]	high avidity binding; also recorded: high binding in vitro	192	
CC[C@H](C)[C@H](NC(=O)[C@@H](NC(=O)[C@H](CCCCN)NC(=O)[C@H](Cc1ccccc1)NC(=O)[C@H](CC(=O)O)NC(=O)[C@H](CO)NC(=O)[C@@H]1CCCN1C(=O)[C@@H](N)CC(C)C)[C@@H](C)O)C(=O)N[C@@H](CC(C)C)C(=O)O [p1123]		74	lytic activity of mCTL line for T2-B7 pulsed with peptide (in words) [3]: high lytic activity; CTL induction and lysis of T2-B7 pulsed with p1123 (in words) ([4]; PBMC from HLA-B7+ normal blood donors, repeated in vitro restimulation): high efficiency CTL were induced; efficiency of CTL induced (in words) ([4]; PBMC from a prostate cancer patient, compared with normal donors): less efficient; lysis of JY cells by CTL against p1123 (in words) [5]: also killed JY cells in the absence of any peptide pulsing
